In patent US20170156324A1 (Dow AgroSciences LLC, priority 2015, published 2017):
Several values for one entry are separate records, joined by “and”; a condition that tells them apart may be missing. Equal entries are not always repeated.

What was measured:
Format in all cases: in vivo
[1] = system: Alopecurus myosuroides Huds. (blackgrass, ALOMY); test: Field trial, post-emergence % visual weed control, ALOMY; details: 15DAA
Description: (§1) Except for the trials utilizing the OD formulations, Actirob B was applied at 0.5 or 1.0 liters per hectare (L/ha), or Polyglycol 26-2 was applied at 0.5 to 1.0 L/ha in all respective single and tankmixture treatments being evaluated.
(§2) Trials were established as randomized complete blocks (RCBD) with three to four replicates. Individual treatments were 2-2.5 meters (m) wide and 6-20 m long. An untreated control was included in each trial. All trial sites had naturally occurring populations of weeds.
(§3) Herbicides were applied with backpack or bicycle sprayers using compressed air, nitrogen (N2) or carbon dioxide (CO2) as a propellant. All sprayers delivered a uniform spray pattern that provided thorough coverage of the foliage using a water volume of 150-300 L/ha. All herbicides were applied post-emergence in the spring to early-summer At the time of herbicide applications, winter wheat crops were at the six-leaf to three-tiller stage. Broadleaf and grass weeds were at a similar stage of growth at the time of herbicide application, typically from five leaf to 3 tiller depending on the weed species and time of year.
(§4) The treated plots and control plots were rated blind at various intervals after application. […] The control of the target weeds was visually assessed as percent control, compared to an untreated control plot. The assessments were based on a percent visual reduction in pest plant biomass and/or stand reduction of weed population.
(§5) The efficacy of all treatments was assessed at 13-22 days after application (DAA) for an early season rating, 23-39 DAA for a mid-season rating, and 41-84 DAA for a late-season rating. The data were statistically analyzed using various statistical methods, generally including a Tukey's HSD Factorial Analysis of Variance with a significance level of 5%.
(§6) Colby's equation was used to determine the herbicidal effects expected from the mixtures (Colby, S. R. Calculation of the synergistic and antagonistic response of herbicide combinations. Weeds 1967, 15, 20-22). […]

[2] = system: Echinochloa crus-galli (L.) P. Beauv. (barnyardgrass, ECHCG); test: Field trial, post-emergence % visual weed control, ECHCG
Description: as §1, §2, §3, §4, §5
(§7) Colby's equation was used to determine the herbicidal effects expected from the mixtures (Colby, S. R. Calculation of the synergistic and antagonistic response of herbicide combinations. Weeds 1967, 15, 20-22). A t-test (alpha=0.05) between Colby predictions and observed combinations was used to test for significant differences indicating synergy or antagonism using replicate data.
(§8) Expected=A+B+C−(AB+AC+BC)/100+(ABC)/10,000

[3] = system: Stellaria media (L.) Vill. (common chickweed, STEME); test: Field trial, post-emergence % visual weed control, STEME
Description: as §1, §2, §3, §4, §5, §7, §8

[4] = system: Matricaria recutita L. (wild chamomile, MATCH); test: Field trial, post-emergence % visual weed control, MATCH
Description: as §1, §2, §3, §4, §5, §7, §8

[5] = system: Consolida regalis S. F. Gray (branching larkspur, CNSRE); test: Field trial, post-emergence % visual weed control, CNSRE
Description: as §1, §2, §3, §4, §5, §7, §8

[6] = system: Viola arvensis Murr. (field violet, VIOAR); test: Field trial, post-emergence % visual weed control, VIOAR
Description: as §1, §2, §3, §4, §5, §7, §8

[7] = system: Galium aparine L. (catchweed bedstraw, GALAP); test: Field trial, post-emergence % visual weed control, GALAP; details: 28DAA
Description: as §1, §2, §3, §4, §5, §6

[8] = system: Solanum nigrum L. (black nightshade, SOLNI); test: Field trial, post-emergence % visual weed control, SOLNI
Description: as §1, §2, §3, §4, §5, §7, §8

[9] = system: Centaurea cyanus (cornflower, CENCY); test: Field trial, post-emergence % visual weed control, CENCY
Description: as §1, §2, §3, §4, §5, §7, §8

[10] = system: Apera spica-venti (L.) Beauv. (windgrass, APESV); test: Field trial, post-emergence % visual weed control, APESV
Description: as §1, §2, §3, §4, §5, §7, §8

[11] = system: Lamium purpureum L. (purple deadnettle, LAMPU); test: Field trial, post-emergence % visual weed control, LAMPU
Description: as §1, §2, §3, §4, §5, §7, §8

[12] = system: Agropyron repens L. (quackgrass, AGRRE); test: Field trial, post-emergence % visual weed control, AGRRE; details: 14DAA
Description: as §1, §2, §3, §4, §5, §6

[13] = system: Matricaria inodora (scentless mayweed, MATIN); test: Field trial, post-emergence % visual weed control, MATIN; details: 14DAA
Description: as §1, §2, §3, §4, §5, §7, §8

[14] = system: Papaver rhoeas L. (common poppy, PAPRH); test: Field trial, post-emergence % visual weed control, PAPRH; details: 56DAA, 22.5 g ai/ha
Description: as §1, §2
(§9) Herbicides were applied with backpack or bicycle sprayers using compressed air, nitrogen (N2) or carbon dioxide (CO2) as a propellant. All sprayers delivered a uniform spray pattern that provided thorough coverage of the foliage using a water volume of 150-300 L/ha. […]
(§10) The treated plots and control plots were rated blind at various intervals after application. […] The control of the target weeds was visually assessed as percent control, compared to an untreated control plot. […]
as §5, with “5%. […]” for “5%.”

[15] = system: Lolium rigidum (rigid ryegrass, LOLRI); test: Field trial, post-emergence % visual weed control, LOLRI; details: 28DAA, 22.5 g ai/ha
Description: as §1, §2, §9, §10
as §5, with “5%. […]” for “5%.”

Avena sp. (oats, AVESS) = test: Field trial, post-emergence % visual weed control, AVESS; details: 76DAA, 18.75 g ai/ha
Description: as §1, §2, §9, §10
as §5, with “5%. […]” for “5%.”

[16] = system: Avena macrocarpa Moench (wild red oat, AVEST); test: Field trial, post-emergence % visual weed control, AVEST; details: 32DAA, 18.75 g ai/ha
Description: as §1, §2, §9, §10
as §5, with “5%. […]” for “5%.”

[17] = system: Lolium L. sp. (ryegrass, LOLSS); test: Field trial, post-emergence % visual weed control, LOLSS; details: 14DAA, 18.75 g ai/ha
Description: as §1, §2, §9, §10
as §5, with “5%. […]” for “5%.”

[18] = system: Lolium multiflorum Lam. (Italian ryegrass, LOLMU); test: Field trial, post-emergence % visual weed control, LOLMU; details: 22.5 g ai/ha
Description: as §1, §2, §9, §10
as §5, with “5%. […]” for “5%.”

Structure (SMILES): COC(=O)c1nc(-c2ccc(Cl)c(OC)c2F)cc(N)c1Cl [Halauxifen-Methyl, methyl 4-amino-3-chloro-6-(4-chloro-2-fluoro-3-methoxyphenyl)pyridine-2-carboxylate]
- Mean % Weed Control ([1]; 4 g ae/ha): 0.0%
- Mean % Weed Control ([2]; 14DAA, 3 g ae/ha): 0.0%
- Mean % Weed Control ([2]; 29DAA, 3 g ae/ha): 0.0%
- Mean % Weed Control ([2]; 56DAA, 3 g ae/ha): 0.0%
- Mean % Weed Control ([3]; 15DAA, 4.8 g ae/ha): 0.0%
- Mean % Weed Control ([3]; 15DAA, 6 g ae/ha): 0.0%
- Mean % Weed Control ([3]; 61DAA, 4.8 g ae/ha): 0.0%
- Mean % Weed Control ([3]; 61DAA, 6 g ae/ha): 1.3% and 3.2%
- Mean % Weed Control ([3]; 78DAA, 4.8 g ae/ha): 6.3%
- Mean % Weed Control ([3]; 78DAA, 6 g ae/ha): 8.8%
- Mean % Weed Control ([4]; 15DAA, 4.8 g ae/ha): 0.0%
- Mean % Weed Control ([4]; 61DAA, 4.8 g ae/ha): 0.0%
- Mean % Weed Control ([4]; 61DAA, 6 g ae/ha): 1.3% and 3.2%
- Mean % Weed Control ([4]; 78DAA, 4.8 g ae/ha): 6.3%
- Mean % Weed Control ([4]; 78DAA, 6 g ae/ha): 6.3%
- Mean % Weed Control ([5]; 31DAA, 3 g ae/ha): 68.3%
- Mean % Weed Control ([5]; 31DAA, 4 g ae/ha): 70.8%
- Mean % Weed Control ([5]; 53DAA, 3 g ae/ha): 70.0%
- Mean % Weed Control ([5]; 53DAA, 4 g ae/ha): 72.0%
- Mean % Weed Control ([5]; 84DAA, 3 g ae/ha): 70.0%
- Mean % Weed Control ([5]; 84DAA, 4 g ae/ha): 72.5%
- Mean % Weed Control ([6]; 14DAA, 3 g ae/ha): 0.0%
- Mean % Weed Control ([6]; 14DAA, 4 g ae/ha): 0.0%
- Mean % Weed Control ([6]; 56DAA, 3 g ae/ha): 0.0%
- Mean % Weed Control ([7]; 3 g ae/ha): 0.0%
- Mean % Weed Control ([8]; 29DAA, 3 g ae/ha): 10.0%
- Mean % Weed Control ([8]; 56DAA, 3 g ae/ha): 0.0%
- Mean % Weed Control ([9]; 28DAA, 3 g ae/ha): 75.0%
- Mean % Weed Control ([9]; 77DAA, 3 g ae/ha): 82.5%
- Mean % Weed Control ([9]; 84DAA, 3 g ae/ha): 1.3%
- Mean % Weed Control ([9]; 84DAA, 4 g ae/ha): 27.5%
- Mean % Weed Control ([10]; 14DAA, 3 g ae/ha): 0.0%
- Mean % Weed Control ([10]; 14DAA, 4 g ae/ha): 0.0%
- Mean % Weed Control ([10]; 28DAA, 3 g ae/ha): 0.0%
- Mean % Weed Control ([10]; 28DAA, 4 g ae/ha): 0.0%
- Mean % Weed Control ([10]; 56DAA, 3 g ae/ha): 0.0%
- Mean % Weed Control ([11]; 15DAA, 4.8 g ae/ha): 72.5%
- Mean % Weed Control ([11]; 15DAA, 6 g ae/ha): 55.0%
- Mean % Weed Control ([12]; 3 g ae/ha): 0.0%
- Mean % Weed Control ([13]; 3 g ae/ha): 0.0%
- Mean % Weed Control ([13]; 4 g ae/ha): 0.0%

Structure (SMILES): COc1cc(OC)n2nc(NS(=O)(=O)c3c(C(F)(F)F)ccnc3OC)nc2n1 [Pyroxsulam, N-(5,7-dimethoxy[1,2,4]triazolo[1,5-a]pyrimidin-2-yl)-2-methoxy-4-(trifluoromethyl)-pyridine-3-sulfonamide]
- Mean % Weed Control [14]: 1.9%
- Mean % Weed Control ([1]; 12 g ai/ha): 27.5%
- Mean % Weed Control [15]: 72.5%
- Mean % Weed Control ([2]; 14DAA, 18.75 g ai/ha): 85.0%
- Mean % Weed Control ([2]; 29DAA, 18.75 g ai/ha): 75.0%
- Mean % Weed Control ([2]; 56DAA, 18.75 g ai/ha): 60.0%
- Mean % Weed Control (Avena sp. (oats, AVESS)): 62.0%
- Mean % Weed Control ([3]; 15DAA, 9.6 g ai/ha): 0.0%
- Mean % Weed Control ([3]; 15DAA, 12 g ai/ha): 0.0%
- Mean % Weed Control ([3]; 61DAA, 9.6 g ai/ha): 5.0% and 11.1%
- Mean % Weed Control ([3]; 61DAA, 12 g ai/ha): 3.8% and 9.7%
- Mean % Weed Control ([3]; 78DAA, 9.6 g ai/ha): 16.3%
- Mean % Weed Control ([3]; 78DAA, 12 g ai/ha): 13.8%
- Mean % Weed Control ([4]; 15DAA, 9.6 g ai/ha): 12.8%
- Mean % Weed Control ([4]; 61DAA, 9.6 g ai/ha): 16.3% and 23.7%
- Mean % Weed Control ([4]; 61DAA, 12 g ai/ha): 20.0% and 26.3%
- Mean % Weed Control ([4]; 78DAA, 9.6 g ai/ha): 17.0%
- Mean % Weed Control ([4]; 78DAA, 12 g ai/ha): 18.8%
- Mean % Weed Control ([5]; 31DAA, 12 g ai/ha): 66.8%
- Mean % Weed Control ([5]; 53DAA, 12 g ai/ha): 70.0%
- Mean % Weed Control ([5]; 84DAA, 12 g ai/ha): 70%
- Mean % Weed Control ([6]; 14DAA, 12 g ai/ha): 61.3%
- Mean % Weed Control ([6]; 56DAA, 12 g ai/ha): 93.8%
- Mean % Weed Control [16]: 97.8%
- Mean % Weed Control ([7]; 12 g ai/ha): 89.5%
- Mean % Weed Control ([8]; 29DAA, 18.75 g ai/ha): 50.0%
- Mean % Weed Control ([8]; 56DAA, 18.75 g ai/ha): 30.0%
- Mean % Weed Control [17]: 90.0%
- Mean % Weed Control ([9]; 28DAA, 12 g ai/ha): 38.8%
- Mean % Weed Control ([9]; 77DAA, 12 g ai/ha): 15.0%
- Mean % Weed Control ([9]; 84DAA, 12 g ai/ha): 12.5%
- Mean % Weed Control ([10]; 14DAA, 12 g ai/ha): 72.5%
- Mean % Weed Control ([10]; 28DAA, 12 g ai/ha): 88.8%
- Mean % Weed Control ([10]; 56DAA, 12 g ai/ha): 94.5%
- Mean % Weed Control ([11]; 15DAA, 9.6 g ai/ha): 16.3%
- Mean % Weed Control ([11]; 15DAA, 12 g ai/ha): 10.0%
- Mean % Weed Control ([11]; 32DAA, 9.6 g ai/ha): 0.0%
- Mean % Weed Control ([18]; 28DAA): 72.5%
- Mean % Weed Control ([18]; 55DAA): 72.5%
- Mean % Weed Control ([12]; 12 g ai/ha): 37.5%
- Mean % Weed Control ([13]; 12 g ai/ha): 20.0%
